# According to patent US7348301B2, “Lysozyme-based method and composition to control the growth of microorganisms in aqueous systems” (Buckman Laboratories International, Inc., priority 2006, dated 2008):
# Assays:
# [1] = system: Chlorella sp. (ATCC 7516); assay: Evaluation of algaecidal activity (MIC, checkerboard synergy) against Chlorella sp.; assay type: cell-based; details: for [A]/MICA + [B]/MICB (Fractional Inhibitory Concentration Index, FIC): Chlorella sp., <1 denotes synergy; for MIC (ppm product): Chlorella sp. (ATCC 7516), 14 days at 24 C, 16 h light/8 h darkness, enzyme alone
# Protocol: (§1) A. Evaluation of Algaecidal Activity. This test method provides a technique for testing compounds for their effectiveness to inhibit (repress) algae growth.
# (§2) Cell suspension from a culture grown in modified Allen's medium for 14 days or as needed to attain a desired cell mass of Chlorella sp. (ATCC 7516) or Phormidium faveolarum (UTEX 427). The inoculum is calibrated at 82% transmittance measured at 590 nanometers wavelength before inoculation.
# (§3) Sterilize the medium in the autoclave for 20 minutes at 15 pounds pressure (121° C.). After autoclaving, cool medium to 45-50° C. and dispense 5 ml of medium per test tube, then add the compound and the inoculum.
# (§4) Prepare a stock solution in water of the compound to be tested. The concentration of the stock solution is dependent on the largest dosage desired to be tested. Dilute the stock solution to obtain dosages smaller than that chosen for the stock solution. A maximum amount of 100 microliters of stock solution or the corresponding dilution should be added per test tube.
# • Add 100 microliters of inoculum per test tube, per type of medium and type of inoculum. Incubation: • Place the test tubes containing the treatments in an incubator set at 24° C. Light is provided by plant growth fluorescent tubes set to provide 16 h of light and 8 h of darkness. […] The minimum inhibitory concentration (MIC) of the compound is the smallest dosage showing negative algae growth. Synergy Evaluation:
# Synergy was measured by checkerboards dilutions (Yan and Hancock, 2001), in which one compound is diluted along the rows of test tubes and the other is diluted along the columns. This method focuses on looking for a reduction in the MIC of each component in the presence of the other.
# [2] = system: Phormidium faveolarum (UTEX 427); assay: Evaluation of algaecidal activity (MIC, checkerboard synergy) against Phormidium faveolarum; assay type: cell-based; details: <1 denotes synergy
# Protocol: as §1, §2, §3, §4
# • Add 100 microliters of inoculum per test tube, per type of medium and type of inoculum. Incubation: • Place the test tubes containing the treatments in an incubator set at 24° C. […]
# Synergy was measured by checkerboards dilutions (Yan and Hancock, 2001), in which one compound is diluted along the rows of test tubes and the other is diluted along the columns. […]
compound,measurement,setting,value
[Cl-].[Na+] [Sodium Chloride],"[A]/MICA + [B]/MICB (Fractional Inhibitory Concentration Index, FIC)","[1]; Example 10, 14 days",1.000
same,"[A]/MICA + [B]/MICB (Fractional Inhibitory Concentration Index, FIC)","[2]; Example 11, 14 days",1.00
Benzalkonium Chloride [reference compound],"[A]/MICA + [B]/MICB (Fractional Inhibitory Concentration Index, FIC)","[1]; Example 1, 18 days",1.000
same,"[A]/MICA + [B]/MICB (Fractional Inhibitory Concentration Index, FIC)","[2]; Example 2, 18 days",1.00
Lysozyme Chloride [Lysozyme Chloride (MP Biomedicals)],MIC (ppm product),[1],0.1-0.4 ppm product
Lysozyme Chloride [Lysozyme Chloride (NutriScience)],MIC (ppm product),[1],0.4-0.7 ppm product
Lysozyme [Lysozyme (Sigma)],MIC (ppm product),[1],0.4-0.7 ppm product
